Data reported in article PMC11189555, “Aryl amino acetamides prevent Plasmodium falciparum ring development via targeting the lipid-transfer protein PfSTART1” (Nature Communications, 2024).

Test system: PopE-F10 M-833 resistant clone (PfSTART1 N330K)
Experiment: Growth inhibition assay (72 h, LDH activity)
Type: cell-based, Plasmodium falciparum
Details: for EC50: Plasmodium falciparum, 72 h; for EC50 / Fold change compared to 3D7: Supplementary Table 1; for EC50 / resistance of the line compared with 3D7: PopE-F10 (N330K); for resistance of the line compared with 3D7: Fig 4B; for Fold change compared to 3D7: EC50 on PopE-F10 vs 3D7
Experimental: The drug was then removed, and parasites were allowed to recover. Another cycle of drug treatment (3 μM M-833) was then resumed. The resistant lines were cloned out by limiting dilution (diluting the culture into a 96-well plate to achieve an average of ~0.3 parasites per well), prior to growth inhibition assays and genomic DNA (gDNA) extraction (DNeasy Blood and Tissue kit (Qiagen)[18].
Parasite growth assays with inhibitory compounds were performed as per[11] and are fully described in the Supplementary Information. […]
Growth inhibition assays. Synchronised ring-stage parasites (0.3-0.6% parasitemia, 2% haematocrit) were grown for 72 h in a serial-dilution of the compound under […]
and compound 4. Note that M-833 was first purchased from MolPort (MolPort -002-267-916) then made in-house at WEHI: the differences observed in EC50s across experiments are attributed to the different batches of M -833. For some experiments, 0, 0.25 or 2.5 mM of glucosamine (GlcN) was also added. Experiments were set up in technical duplicates or triplicates. Following a freeze -thaw cycle, lactate dehydrogenase (LDH) activity was assessed as an indicator of parasite growt h 5. 30 μL of parasite culture was incubated for 30 min in the dark with 75 μL Malstat mixture (0.1 M Tris pH 9.0, 20 g/L lactic acid, pH 7.5, 0.2% Triton-X100, 0.5 g/L acetylpyridine adenine dinucleotide (APAD, Sigma), 200 μg/mL nitroblue tetrazolium (NBT; Sigma), 1 μg/mL phenozine ethosulfate (PES; Sigma)). Absorbance was then measured at 650 nm, transformed using the formula below, plotted against the logarithm of the concentrations, and a non-linear regression (log(inhibitor) vs. response, variable slope) was calculated using GraphPad Prism to assess the half-inhibitory […]
Growth inhibition % = (1 − average(sample)− average(uRBC)) ∗ 100 […]
The DMSO samples were also used to assess growth of parasite in the presence of 0.25 and 2.5 mM GlcN (normalised by DMSO in 0 mM GlcN). […]

[1] = PopE-F10, 3.04832 nM, biological replicate 1
[2] = PopE-F10, 3.04832 nM, biological replicate 2
[3] = PopE-F10, 3.04832 nM, biological replicate 3
[4] = PopE-F10, 9.14495 nM, biological replicate 1
[5] = PopE-F10, 9.14495 nM, biological replicate 2
[6] = PopE-F10, 9.14495 nM, biological replicate 3
[7] = PopE-F10, 27.4348 nM, biological replicate 1
[8] = PopE-F10, 27.4348 nM, biological replicate 2
[9] = PopE-F10, 27.4348 nM, biological replicate 3
[10] = PopE-F10, 82.3045 nM, biological replicate 1
[11] = PopE-F10, 82.3045 nM, biological replicate 2
[12] = PopE-F10, 82.3045 nM, biological replicate 3
[13] = PopE-F10, 246.914 nM, biological replicate 1
[14] = PopE-F10, 246.914 nM, biological replicate 2
[15] = PopE-F10, 246.914 nM, biological replicate 3
[16] = PopE-F10, 740.741 nM, biological replicate 1
[17] = PopE-F10, 740.741 nM, biological replicate 2
[18] = PopE-F10, 740.741 nM, biological replicate 3
[19] = PopE-F10, 2222.22 nM, biological replicate 1
[20] = PopE-F10, 2222.22 nM, biological replicate 2
[21] = PopE-F10, 2222.22 nM, biological replicate 3
[22] = PopE-F10, 6666.67 nM, biological replicate 1
[23] = PopE-F10, 6666.67 nM, biological replicate 2
[24] = PopE-F10, 6666.67 nM, biological replicate 3
[25] = PopE-F10, 20000 nM, biological replicate 1
[26] = PopE-F10, 20000 nM, biological replicate 2
[27] = PopE-F10, 20000 nM, biological replicate 3

| Compound | EC50 [µM] | resistance of the line compared with 3D7 | (av-uRBC) / (DMSO-uRBC) x100 [1] | (av-uRBC) / (DMSO-uRBC) x100 [2] | (av-uRBC) / (DMSO-uRBC) x100 [3] | (av-uRBC) / (DMSO-uRBC) x100 [4] | (av-uRBC) / (DMSO-uRBC) x100 [5] | (av-uRBC) / (DMSO-uRBC) x100 [6] | (av-uRBC) / (DMSO-uRBC) x100 [7] | (av-uRBC) / (DMSO-uRBC) x100 [8] | (av-uRBC) / (DMSO-uRBC) x100 [9] | (av-uRBC) / (DMSO-uRBC) x100 [10] | (av-uRBC) / (DMSO-uRBC) x100 [11] | (av-uRBC) / (DMSO-uRBC) x100 [12] | (av-uRBC) / (DMSO-uRBC) x100 [13] | (av-uRBC) / (DMSO-uRBC) x100 [14] | (av-uRBC) / (DMSO-uRBC) x100 [15] | (av-uRBC) / (DMSO-uRBC) x100 [16] | (av-uRBC) / (DMSO-uRBC) x100 [17] | (av-uRBC) / (DMSO-uRBC) x100 [18] | further results |
| --- | --- | --- | --- | --- | --- | --- | --- | --- | --- | --- | --- | --- | --- | --- | --- | --- | --- | --- | --- | --- | --- |
| O=C(CNc1ccc(Cl)c(S(=O)(=O)N2CCOCC2)c1)Nc1ccc(F)c(Cl)c1 [compound 2, reference compound] | > 20 | highly resistant | 114.401 | 112.198 | 118.159 | 113.83 | 112.634 | 115.839 | 109.84 | 113.332 | 126.539 | 112.064 | 115.064 | 112.119 | 108.998 | 111.627 | 122.435 | 107.242 | 111.201 | 127.133 | (av-uRBC) / (DMSO-uRBC) x100 [19]: 102.224; (av-uRBC) / (DMSO-uRBC) x100 [20]: 112.371; (av-uRBC) / (DMSO-uRBC) x100 [21]: 122.627; (av-uRBC) / (DMSO-uRBC) x100 [22]: 102.39; (av-uRBC) / (DMSO-uRBC) x100 [23]: 105.46; (av-uRBC) / (DMSO-uRBC) x100 [24]: 111.965; (av-uRBC) / (DMSO-uRBC) x100 [25]: 70.532; (av-uRBC) / (DMSO-uRBC) x100 [26]: 73.7076; (av-uRBC) / (DMSO-uRBC) x100 [27]: 50.604; Fold change compared to 3D7: > 117 fold |
| CC(C)(Oc1ccc(Cl)c(S(=O)(=O)N2CCOCC2)c1)C(=O)Nc1ccc(F)c(Cl)c1 [compound 3] | 3.25 | highly resistant | 115.115 | 108.442 | 119.048 | 115.06 | 109.174 | 119.013 | 115.16 | 107.726 | 110.78 | 115.437 | 107.232 | 123.007 | 112.345 | 106.543 | 116.449 | 107.602 | 102.914 | 98.1859 | (av-uRBC) / (DMSO-uRBC) x100 [19]: 85.8267; (av-uRBC) / (DMSO-uRBC) x100 [20]: 84.9625; (av-uRBC) / (DMSO-uRBC) x100 [21]: 59.2883; (av-uRBC) / (DMSO-uRBC) x100 [22]: 37.9433; (av-uRBC) / (DMSO-uRBC) x100 [23]: 28.6269; (av-uRBC) / (DMSO-uRBC) x100 [24]: 13.3438; (av-uRBC) / (DMSO-uRBC) x100 [25]: 11.6135; (av-uRBC) / (DMSO-uRBC) x100 [26]: 7.135; (av-uRBC) / (DMSO-uRBC) x100 [27]: 4.744; Fold change compared to 3D7: 203 fold |
